Several values for one entry are separate records, joined by “and”; a condition that tells them apart may be missing. Equal values may be shown once.

In one experiment the target is T1, FGFR1 (Homo sapiens, UniProt P11362).
T1 construct: purchased Millipore
The experiment is described as follows: ELISA kinase assay, FGFR1. The conditions noted are these: for inhibition at 1 µM: 1 μM compound; for IC50: mean ± SD from two separate experiments; for inhibition at 0.01 µM: 0.01 μM compound. Type of experiment: biochemical. The procedure: (§1) The effects of compounds on the activities of indicated (FGFR1 and c-Met) kinases were determined using enzyme-linked immunosorbent assays (ELISAs) with purified recombinant proteins. Briefly, 20 μg/mL poly (Glu, Tyr)4:1 (Sigma, St. Louis, MO, USA) was pre-coated in 96-well plates as a substrate. A 50-μL aliquot of 10 μmol/L ATP solution diluted in kinase reaction buffer (50 mmol/L HEPES (pH 7.4), 50 mmol/L MgCl2, 0.5 mmol/L MnCl2, 0.2 mmol/L Na3VO4, and 1 mmol/L DTT) was added to each well; 1 μL of various concentrations of compounds diluted in 1% DMSO (v/v) (Sigma) were then added to each reaction well. DMSO (1%, v/v) was used as the negative control. The kinase reaction was initiated by the addition of purified tyrosine kinase proteins FGFR1 (Millipore, Darmstadt, Germany) or c-Met (Millipore) diluted in 49 μL of kinase reaction buffer. After incubation for 60 min at 37 °C, the plate was washed three times with phosphate-buffered saline (PBS) containing 0.1% Tween 20 (T-PBS). Anti-phosphotyrosine (PY99) antibody (Sanra Cruz, Dallas, USA) (100 μL; 1:500, diluted in 5 mg/mL bovine serum albumin (BSA) T-PBS) was then added. After a 30-min incubation at 37 °C, the plate was washed three times, and 100 μL horseradish peroxidase-conjugated goat anti-mouse IgG (Calbiochem, Shanghai, China) (1:2000, diluted in 5 mg/mL BSA T-PBS) was added. The plate was then incubated at 37°C for 30 min and washed 3 times. A 100-μL aliquot of a solution containing 0.03% H2O2 and 2 mg/mL o-phenylenediamine in 0.1 mol/L citrate buffer (pH 5.5) was added. The reaction was terminated by the addition of 50 μL of 2 mol/L H2SO4 as the color changed, and the plate was analyzed using a multi-well spectrophotometer (SpectraMAX 190, Molecular Devices, Palo Alto, CA, USA) at 490 nm. […] (1) where IR, A490 and A490control are the inhibition rate, the absorbance value of the tested compound at 490 nm and the absorbance value of the negative control compound at 490 nm, respectively. The IC50 values were calculated from the inhibition curves in two separate experiments.

For another experiment, the target named is T2, c-Met (Homo sapiens, UniProt P08581).
T2 construct: purchased Millipore
T2 sequence (P08581 25-1390): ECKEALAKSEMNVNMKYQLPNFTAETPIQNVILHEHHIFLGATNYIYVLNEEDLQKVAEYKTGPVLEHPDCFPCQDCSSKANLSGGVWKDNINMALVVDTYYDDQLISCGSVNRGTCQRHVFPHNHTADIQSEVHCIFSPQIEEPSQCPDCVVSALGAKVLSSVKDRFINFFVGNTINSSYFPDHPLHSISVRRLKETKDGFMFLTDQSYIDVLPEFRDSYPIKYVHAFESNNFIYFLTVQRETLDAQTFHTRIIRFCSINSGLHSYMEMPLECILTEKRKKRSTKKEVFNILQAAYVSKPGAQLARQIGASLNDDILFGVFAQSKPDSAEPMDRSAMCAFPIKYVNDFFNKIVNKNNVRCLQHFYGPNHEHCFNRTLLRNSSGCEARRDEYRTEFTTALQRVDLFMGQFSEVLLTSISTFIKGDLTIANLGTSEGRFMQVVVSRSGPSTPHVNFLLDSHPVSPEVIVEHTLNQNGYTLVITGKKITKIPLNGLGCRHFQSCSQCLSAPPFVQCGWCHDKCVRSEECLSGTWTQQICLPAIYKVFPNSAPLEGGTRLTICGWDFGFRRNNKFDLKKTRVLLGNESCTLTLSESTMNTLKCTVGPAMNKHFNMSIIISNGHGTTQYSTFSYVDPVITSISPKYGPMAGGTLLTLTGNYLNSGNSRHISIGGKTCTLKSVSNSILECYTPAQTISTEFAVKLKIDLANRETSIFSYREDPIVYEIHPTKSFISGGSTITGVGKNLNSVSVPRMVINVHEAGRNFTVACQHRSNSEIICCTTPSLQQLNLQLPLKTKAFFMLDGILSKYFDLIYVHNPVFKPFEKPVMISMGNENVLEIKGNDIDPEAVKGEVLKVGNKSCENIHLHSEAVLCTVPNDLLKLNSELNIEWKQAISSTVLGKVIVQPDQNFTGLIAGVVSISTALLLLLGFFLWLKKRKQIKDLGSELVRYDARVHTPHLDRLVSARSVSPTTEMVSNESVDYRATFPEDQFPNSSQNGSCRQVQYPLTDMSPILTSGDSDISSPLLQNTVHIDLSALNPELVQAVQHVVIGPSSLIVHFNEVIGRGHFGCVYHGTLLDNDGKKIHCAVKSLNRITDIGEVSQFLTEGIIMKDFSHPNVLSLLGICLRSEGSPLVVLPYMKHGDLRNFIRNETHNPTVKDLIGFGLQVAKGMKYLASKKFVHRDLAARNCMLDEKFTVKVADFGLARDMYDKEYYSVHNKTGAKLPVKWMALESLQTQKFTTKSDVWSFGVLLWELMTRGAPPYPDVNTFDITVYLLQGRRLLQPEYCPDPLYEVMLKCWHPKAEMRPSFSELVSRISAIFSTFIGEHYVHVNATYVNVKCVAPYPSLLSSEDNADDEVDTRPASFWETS
The experiment is described as follows: ELISA kinase assay, c-Met. Type of experiment: biochemical. As to conditions: for inhibition at 0.01 µM: 0.01 μM compound; for inhibition at 0.1 µM: 0.1 μM compound; for inhibition at 1 µM: 1 μM compound. The procedure: as §1

Where [1] appears, read: 10 μM compound, mean from two separate experiments.

T1 sequence (P11362 22-822): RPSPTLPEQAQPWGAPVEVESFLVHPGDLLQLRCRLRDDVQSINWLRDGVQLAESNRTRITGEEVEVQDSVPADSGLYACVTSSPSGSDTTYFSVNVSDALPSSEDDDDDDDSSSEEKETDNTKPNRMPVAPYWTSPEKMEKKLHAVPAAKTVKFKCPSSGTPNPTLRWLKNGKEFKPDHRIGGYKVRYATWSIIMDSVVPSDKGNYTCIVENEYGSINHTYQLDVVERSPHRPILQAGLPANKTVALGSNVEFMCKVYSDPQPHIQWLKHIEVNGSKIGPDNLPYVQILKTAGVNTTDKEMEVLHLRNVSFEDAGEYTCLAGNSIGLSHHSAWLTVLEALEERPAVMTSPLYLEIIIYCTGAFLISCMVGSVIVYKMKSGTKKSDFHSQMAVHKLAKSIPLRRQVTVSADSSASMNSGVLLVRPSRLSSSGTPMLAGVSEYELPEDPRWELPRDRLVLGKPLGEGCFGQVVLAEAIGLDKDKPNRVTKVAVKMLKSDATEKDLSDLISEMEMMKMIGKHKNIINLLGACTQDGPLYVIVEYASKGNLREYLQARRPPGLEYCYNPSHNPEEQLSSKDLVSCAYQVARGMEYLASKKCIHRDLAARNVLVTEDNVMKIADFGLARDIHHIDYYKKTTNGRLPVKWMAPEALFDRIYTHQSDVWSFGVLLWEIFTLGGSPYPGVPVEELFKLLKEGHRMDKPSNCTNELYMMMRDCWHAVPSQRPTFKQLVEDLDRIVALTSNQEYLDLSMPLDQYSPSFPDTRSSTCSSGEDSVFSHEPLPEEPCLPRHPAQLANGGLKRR

In the case of `Cn1cc(-c2cnc3cnn(S(=O)(=O)c4ccccc4)c3c2)cn1` [Compound 4, 6-(1-Methyl-1H-pyrazol-4-yl)-1-(phenylsulfonyl)-1H-pyrazolo[4,3-b]pyridine], at FGFR1, the inhibition at 1 µM is 47.1%. Moreover, at FGFR1 (setting [1]), the inhibition at 10 µM was determined as 87.8%.
Turning to `Cn1cc(-c2cnc3cnn(S(=O)(=O)Cc4ccccc4)c3c2)cn1` [Compound 5, 1-(Benzylsulfonyl)-6-(1-methyl-1H-pyrazol-4-yl)-1H-pyrazolo[4,3-b]pyridine], the inhibition at 10 µM on FGFR1 (setting [1]) was determined as 46.1%.
In the case of `Cn1cc(-c2cnc3cnn(Cc4ccccc4)c3c2)cn1` [Compound 6, 1-Benzyl-6-(1-methyl-1H-pyrazol-4-yl)-1H-pyrazolo[4,3-b]pyridine], the inhibition at 10 µM at FGFR1 (setting [1]) was determined as 53%.
Take `Cn1cc(-c2cnc3cnn(CCc4ccccc4)c3c2)cn1` [Compound 7, 6-(1-Methyl-1H-pyrazol-4-yl)-1-phenethyl-1H-pyrazolo[4,3-b]pyridine]: the inhibition at 10 µM on FGFR1 (setting [1]) was 55.9%.
On to `Cn1cc(-c2cnc3ccn(S(=O)(=O)c4ccccc4)c3c2)cn1` [Compound 8, 6-(1-Methyl-1H-pyrazol-4-yl)-1-(phenylsulfonyl)-1H-pyrrolo[3,2-b]pyridine], for which the inhibition at 1 µM against FGFR1 was 31.6%. Moreover, on FGFR1 (setting [1]), the inhibition at 10 µM was 80.4%.
For the compound `Cn1cc(-c2cnc3ccn(S(=O)(=O)c4ccccc4)c3n2)cn1` [Compound 9, 3-(1-Methyl-1H-pyrazol-4-yl)-5-(phenylsulfonyl)-5H-pyrrolo[2,3-b]pyrazine], the inhibition at 0.1 µM against FGFR1 (0.1 μM compound) amounted to 46%. For the same compound, at FGFR1 (setting [1]), the inhibition at 10 µM is 93.3%. In addition, the “FGFR1 Inhibition (%)” value on FGFR1 (10 μM compound, mean from two separate experiments, 10 µM) came to 90.5%.
For `Cc1ncc(-c2cnn(C)c2)cc1NS(=O)(=O)c1ccccc1` [Compound 10, N-(2-Methyl-5-(1-methyl-1H-pyrazol-4-yl)pyridin-3-yl)benzenesulfonamide], the inhibition at 1 µM against FGFR1 was determined as 15.4%. The inhibition at 10 µM on FGFR1 (setting [1]) is 50%.
`Cn1cc(-c2cnc3ccn(S(=O)(=O)C4CCCC4)c3n2)cn1` [Compound 11, 5-(Cyclopentylsulfonyl)-3-(1-methyl-1H-pyrazol-4-yl)-5H-pyrrolo[2,3-b]pyrazine]: the inhibition at 0.1 µM against FGFR1 (0.1 μM compound) was determined as 26.8%. Moreover, the inhibition at 1 µM at FGFR1 was determined as 20.8%. Further, the inhibition at 10 µM on FGFR1 (setting [1]) was found to be 34.7%.
Turning to `Cn1cc(-c2cnc3ccn(S(=O)(=O)C4CCCCC4)c3n2)cn1` [Compound 12, 5-(Cyclohexylsulfonyl)-3-(1-methyl-1H-pyrazol-4-yl)-5H-pyrrolo[2,3-b]pyrazine], the inhibition at 0.1 µM against FGFR1 (0.1 μM compound) is 29.4%. For the same compound, on FGFR1, the inhibition at 1 µM turned out to be 24.1%. Moreover, on FGFR1 (setting [1]), the inhibition at 10 µM was 53.3%.
On to `Cn1cc(-c2cnc3ccn(S(=O)(=O)c4ccccc4C#N)c3n2)cn1` [Compound 13, 2-((3-(1-Methyl-1H-pyrazol-4-yl)-5H-pyrrolo[2,3-b]pyrazin-5-yl)sulfonyl)benzonitrile], for which the inhibition at 0.1 µM on FGFR1 (0.1 μM compound) is 40.3%. Besides, the inhibition at 1 µM on FGFR1 is 32.6%. Besides, the inhibition at 10 µM against FGFR1 (setting [1]) came out at 59.7%.
As to `Cn1cc(-c2cnc3ccn(S(=O)(=O)c4ccc(Cl)cc4)c3n2)cn1` [Compound 14, 5-((4-Chlorophenyl)sulfonyl)-3-(1-methyl-1H-pyrazol-4-yl)-5H-pyrrolo[2,3-b]pyrazine], the inhibition at 0.1 µM against FGFR1 (0.1 μM compound) was 22%. The inhibition at 1 µM against FGFR1 worked out at 27.2%. The inhibition at 10 µM against FGFR1 (setting [1]) was 45.2%.
For `Cn1cc(-c2cnc3ccn(S(=O)(=O)c4ccc(F)cc4F)c3n2)cn1` [Compound 15, 5-((2,4-Difluorophenyl)sulfonyl)-3-(1-methyl-1H-pyrazol-4-yl)-5H-pyrrolo[2,3-b]pyrazine] the same measures were 23.6%, 31.2% and 55.6%.
Regarding `Cn1cc(-c2cnc3ccn(S(=O)(=O)c4ccc(Cl)c(Cl)c4)c3n2)cn1` [Compound 16, 5-((3,4-Dichlorophenyl)sulfonyl)-3-(1-methyl-1H-pyrazol-4-yl)-5H-pyrrolo[2,3-b]pyrazine], the inhibition at 0.1 µM against FGFR1 (0.1 μM compound) is 13.6%. In addition, the inhibition at 1 µM at FGFR1 was found to be 34.8%. Also, the inhibition at 10 µM on FGFR1 (setting [1]) is 74.5%.
With `Cn1cc(-c2cnc3ccn(S(=O)(=O)c4cccc([N+](=O)[O-])c4)c3n2)cn1` [Compound 17, 3-(1-Methyl-1H-pyrazol-4-yl)-5-((3-nitrophenyl)sulfonyl)-5H-pyrrolo[2,3-b]pyrazine], at c-Met, the inhibition at 0.01 µM is -5.4%, the inhibition at 0.1 µM is -1.5% and the inhibition at 1 µM was 30.6%. Also, on FGFR1 (0.1 μM compound), the inhibition at 0.1 µM came to 61.1%. Further, at FGFR1, the inhibition at 1 µM was determined as 76.4% and the IC50 was 85.9 ± 21.2 nM. Also, at FGFR1 (setting [1]), the inhibition at 10 µM is 92.1%.
`Cn1cc(-c2cnc3ccn(S(=O)(=O)c4ccc([N+](=O)[O-])cc4)c3n2)cn1` [Compound 18, 3-(1-Methyl-1H-pyrazol-4-yl)-5-((4-nitrophenyl)sulfonyl)-5H-pyrrolo[2,3-b]pyrazine]: the inhibition at 0.1 µM against FGFR1 (0.1 μM compound) came out at 17.4%. On FGFR1, the inhibition at 1 µM is 12.8%. In addition, at FGFR1 (setting [1]), the inhibition at 10 µM is 15.5%.
The corresponding values for `Cn1cc(-c2cnc3ccn(S(=O)(=O)c4cccc(N)c4)c3n2)cn1` [Compound 19, 3-((3-(1-Methyl-1H-pyrazol-4-yl)-5H-pyrrolo[2,3-b]pyrazin-5-yl)sulfonyl)aniline] are 34.7%, 57.5% and 82.2%.
On to `Cn1cc(-c2cnc3ccn(S(=O)(=O)c4ccc(N)cc4)c3n2)cn1` [Compound 20, 4-((3-(1-Methyl-1H-pyrazol-4-yl)-5H-pyrrolo[2,3-b]pyrazin-5-yl)sulfonyl)aniline], for which the inhibition at 0.1 µM at FGFR1 (0.1 μM compound) came out at 31.8%. In addition, the inhibition at 1 µM on FGFR1 was determined as 24.2%. Also, the inhibition at 10 µM on FGFR1 (setting [1]) was 42.4%.
In the case of `CC(=O)Nc1cccc(S(=O)(=O)n2ccc3ncc(-c4cnn(C)c4)nc32)c1` [Compound 21, N-(3-((3-(1-Methyl-1H-pyrazol-4-yl)-5H-pyrrolo[2,3-b]pyrazin-5-yl)sulfonyl)phenyl)acetamide], on FGFR1 (0.1 μM compound), the inhibition at 0.1 µM turned out to be 44.7%. For the same compound, at FGFR1, the inhibition at 1 µM came to 50.9%. Also, on FGFR1 (setting [1]), the inhibition at 10 µM is 79%.
For `CCC(=O)Nc1cccc(S(=O)(=O)n2ccc3ncc(-c4cnn(C)c4)nc32)c1` [Compound 22, N-(3-((3-(1-Methyl-1H-pyrazol-4-yl)-5H-pyrrolo[2,3-b]pyrazin-5-yl)sulfonyl)phenyl)propionamide], the inhibition at 0.1 µM on FGFR1 (0.1 μM compound) turned out to be 27.7%. For the same compound, at FGFR1, the inhibition at 1 µM turned out to be 17.3%. Further, the inhibition at 10 µM against FGFR1 (setting [1]) turned out to be 38.7%.
Turning to `CC(=O)n1cc(-c2cnc3ccn(S(=O)(=O)c4cccc([N+](=O)[O-])c4)c3n2)cn1` [Compound 23, 1-(4-(5-((3-Nitrophenyl)sulfonyl)-5H-pyrrolo[2,3-b]pyrazin-3-yl)-1H-pyrazol-1-yl)ethan-1-one], at FGFR1, the inhibition at 0.01 µM came to 36.5% and the inhibition at 1 µM is 58.8%. Also, the inhibition at 0.1 µM on FGFR1 (0.1 μM compound) is under 40%. The “FGFR1 Inhibition (%)” value at FGFR1 (0.1 μM compound, 0.1 µM) is listed as 37.8%.
Take `CCC(=O)n1cc(-c2cnc3ccn(S(=O)(=O)c4cccc([N+](=O)[O-])c4)c3n2)cn1` [Compound 24, 1-(4-(5-((3-Nitrophenyl)sulfonyl)-5H-pyrrolo[2,3-b]pyrazin-3-yl)-1H-pyrazol-1-yl)propan-1-one]: on FGFR1, the inhibition at 0.01 µM worked out at 29.3% and the inhibition at 1 µM was determined as 60.9%. Besides, on FGFR1 (0.1 μM compound), the inhibition at 0.1 µM is under 40%. Moreover, the “FGFR1 Inhibition (%)” value at FGFR1 (0.1 μM compound, 0.1 µM) is 30.2%.
Consider `CC(=O)Cn1cc(-c2cnc3ccn(S(=O)(=O)c4cccc([N+](=O)[O-])c4)c3n2)cn1` [Compound 25, 1-(4-(5-((3-Nitrophenyl)sulfonyl)-5H-pyrrolo[2,3-b]pyrazin-3-yl)-1H-pyrazol-1-yl)propan-2-one], for which, on c-Met, the inhibition at 0.01 µM worked out at 5.5%, the inhibition at 0.1 µM amounted to 5% and the inhibition at 1 µM worked out at 14.1%. Besides, on FGFR1, the inhibition at 0.01 µM was found to be 32.8%; the inhibition at 1 µM amounted to 63.4%; the IC50 was 45 nM and 45.9 nM. On FGFR1 (0.1 μM compound), the inhibition at 0.1 µM stood at 55.7%.
For the compound `CC(=O)c1ccc(-c2cnc3ccn(S(=O)(=O)c4cccc([N+](=O)[O-])c4)c3n2)cc1` [Compound 26, 1-(4-(5-((3-Nitrophenyl)sulfonyl)-5H-pyrrolo[2,3-b]pyrazin-3-yl)phenyl)ethan-1-one], on FGFR1 (0.1 μM compound), the inhibition at 0.1 µM was found to be 35.7%. The inhibition at 1 µM on FGFR1 came out at 57.9%.
As to `COc1cccc2cc(-c3cnc4ccn(S(=O)(=O)c5cccc([N+](=O)[O-])c5)c4n3)[nH]c12` [Compound 28, 3-(7-Methoxy-1H-indol-2-yl)-5-((3-nitrophenyl)sulfonyl)-5H-pyrrolo[2,3-b]pyrazine], on FGFR1, the inhibition at 0.01 µM amounted to 27.2% and the inhibition at 1 µM is 62.4%. Besides, the inhibition at 0.1 µM on FGFR1 (0.1 μM compound) worked out at 34%.
